# Where two headings read alike, the source gives them in different places.
# Experiments:
# [1] = system: HIV-1GRL04810^RP18; test: microbe, parasite or virus in culture; assay type: cell-based; details: for EC50: Human immunodeficiency virus 1, MT4, read-out: EC50 HIV-1GRL04810^RP18; for fold change of EC50 HIV-1GRL04810^RP18 vs HIV-1NL4-3: number in parentheses
# Experimental: (§1) The susceptibility of HIV-1LAI to various drugs was determined as previously described with minor modifications. Briefly, MT-2 cells (10^4/ml) were exposed to 100 50% tissue culture infectious doses (TCID50) of HIV-1LAI in the presence or absence of various concentrations of drugs in 96-well microculture plates and were incubated at 37° C. for 7 days. After 100 μl of the medium was removed from each well, 3-(4,5-dimetylthiazol-2-yl)-2,5-diphenyltetrazolium bromide (MTT) solution (10 μl, 7.5 mg/ml in phosphate-buffered saline) was added to each well in the plate, followed by incubation at 37° C. for 2 h. […] All assays were performed in duplicate or triplicate. […] To determine the sensitivity of primary HIV-1 isolates to drugs, phytohemagglutinin-stimulated peripheral blood mononuclear cells (PHA-PBMC) (10^6/ml) were exposed to 50 TCID50 of each primary HIV-1 isolate and cultured in the presence or absence of various concentrations of drugs in 10-fold serial dilutions in 96-well microculture plates. In determining the drug susceptibility of certain laboratory HIV-1 strains, MT-4 cells were employed as target cells as previously described with minor modifications. In brief, MT-4 cells (10^5/ml) were exposed to 100 TCID50 of drug-resistant HIV-1 strains in the presence or absence of various concentrations of drugs and were incubated at 37° C. On day 7 of culture, the supernatants were harvested and the amounts of p24 Gag protein were determined by using a fully automated chemiluminescent enzyme immunoassay system (Lumipulse F: Fujirebio Inc., Tokyo). […] All assays were performed in duplicate or triplicate. PHA-PBMs were derived from a single donor in each independent experiment. Thus, for obtaining the data, three different donors were recruited.
# (§2) The amounts of p24 were measured every two days for up to 7 days.
# [2] = system: HIV-1GRL05010^RP10; test: microbe, parasite or virus in culture; assay type: cell-based; details: for EC50: Human immunodeficiency virus 1, MT4, read-out: EC50 HIV-1GRL05010^RP10; for fold change of EC50 HIV-1GRL05010^RP10 vs HIV-1NL4-3: number in parentheses
# Experimental: as §1, §2
# [3] = system: HIV-1LAI; test: Drug susceptibility MTT assay, MT-2 cells exposed to HIV-1LAI; assay type: cell-based; details: for Selectivity Index: ratio of CC50 to EC50 against HIV-1LAI
# Experimental: as §1
# [4] = system: HIV-1LPV^R5μM; test: microbe, parasite or virus in culture; assay type: cell-based; details: for EC50: Human immunodeficiency virus 1, MT4, read-out: EC50 HIV-1LPV^R5μM; for fold change of EC50 HIV-1LPV^R5μM vs HIV-1NL4-3: number in parentheses
# Experimental: as §1
# [5] = system: HIV-1APV^R5μM; test: microbe, parasite or virus in culture; assay type: cell-based; details: for EC50: Human immunodeficiency virus 1, MT4, read-out: EC50 HIV-1APV^R5μM; for fold change of EC50 HIV-1APV^R5μM vs HIV-1NL4-3: number in parentheses
# Experimental: as §1
# [6] = system: HIV-1ATV^R5μM; test: microbe, parasite or virus in culture; assay type: cell-based; details: for EC50: Human immunodeficiency virus 1, MT4, read-out: EC50 HIV-1ATV^R5μM; for fold change of EC50 HIV-1ATV^R5μM vs HIV-1NL4-3: number in parentheses
# Experimental: as §1
# [7] = system: HIV-1SQV^R5μM; test: microbe, parasite or virus in culture; assay type: cell-based; details: for EC50: Human immunodeficiency virus 1, MT4, read-out: EC50 HIV-1SQV^R5μM; for fold change of EC50 HIV-1SQV^R5μM vs HIV-1NL4-3: number in parentheses
# Experimental: as §1
# [8] = Apparent BBB permeability coefficient, in vitro BBB model (BBB Kit); details: rat and monkey
# Experimental: The BBB Kit™ was kept at −80° C. until thawing on day 0 of the experiments. Nutritional medium was added to both brain and blood sides of the wells. This solution consists of DMEM F-12 medium with FCS 10% v/v, heparin 100 μg/ml, basic fibroblast growth factor (bFGF) 1.5 ng/ml, insulin 5 μg/ml, transferrin 5 μg/ml, sodium selenite 5 ng/ml, hydrocortisone 500 nM and gentamycin 50 μg/ml. Fresh medium was added 3 hours after thawing following the manufacturer's instructions, and 24 hours later. The plates were incubated at 37° C. until day 4 of the experiment when the condition of astrocytes was checked under a light microscope. Following this, the integrity of the collagen-coated membrane was verified by the measurement of the transendothelial electrical resistance (TEER) using an ohmmeter provided by the manufacturer. […] Detailed information regarding the components of the BBB Kit as well as its mechanisms can be seen by accessing the manufacturer's website http://www.pharmacocell.co.jp/en/bbb/index_e.html.
# Standard curves were generated for each compound on a light spectrophotometer as previously described. 100 μM of each compound was added to the luminal (blood side) of the wells, incubated at 37° C. for 30 minutes and then, the amount of drug that crossed the in vitro BBB was collected and measured under a light spectrophotometer at 230 nanometer absorbances.
# Papp was calculated using the following mathematical formula: […]
# This model (BBB Kit™) is thought to represent an in vitro BBB model for drug transport assays, permitting an adequate cross-talk of the cell lines involved and provide a way to test an apparent passage of small molecules across the BBB as previously described by Nakagawa et al. (41). […] The concentrations of each compound that permeated into the abluminal interface (termed “brain side”) were determined using a spectrophotometer, 30 min after the addition of each drug to the wells.
# The mathematical formula used for the calculation of Papp is described in Materials and Methods.
# [9] = Cytotoxicity (CC50), MTT assay; assay type: cell-based; details: human
# Experimental: The susceptibility of HIV-1LAI to various drugs was determined as previously described with minor modifications. Briefly, MT-2 cells (10^4/ml) were exposed to 100 50% tissue culture infectious doses (TCID50) of HIV-1LAI in the presence or absence of various concentrations of drugs in 96-well microculture plates and were incubated at 37° C. for 7 days. After 100 μl of the medium was removed from each well, 3-(4,5-dimetylthiazol-2-yl)-2,5-diphenyltetrazolium bromide (MTT) solution (10 μl, 7.5 mg/ml in phosphate-buffered saline) was added to each well in the plate, followed by incubation at 37° C. for 2 h. […] All assays were performed in duplicate or triplicate. […] In determining the drug susceptibility of certain laboratory HIV-1 strains, MT-4 cells were employed as target cells as previously described with minor modifications. In brief, MT-4 cells (10^5/ml) were exposed to 100 TCID50 of drug-resistant HIV-1 strains in the presence or absence of various concentrations of drugs and were incubated at 37° C. On day 7 of culture, the supernatants were harvested and the amounts of p24 Gag protein were determined by using a fully automated chemiluminescent enzyme immunoassay system (Lumipulse F: Fujirebio Inc., Tokyo). […] All assays were performed in duplicate or triplicate. PHA-PBMs were derived from a single donor in each independent experiment. Thus, for obtaining the data, three different donors were recruited.
# [10] = Human immunodeficiency virus 1, MT2, read-out: EC50 HIV-1LAI, MT-2 cells, 100 TCID50, MTT assay
# [11] = read-out: EC50 HIV-1LAI, MT-2 cells, 100 TCID50, MTT assay
# [12] = Human immunodeficiency virus 1, MT2, MT-2 cells, 100 TCID50, MTT assay, read-out: EC50 HIV-1LAI
SMILES,EC50 [1] [nM],EC50 [2] [nM],"EC50 [3, 10] [nM]","EC50 [3, 11] [nM]",EC50 [4] [nM],EC50 [5] [nM],EC50 [6] [nM],EC50 [7] [nM],"Papp at 30 min, 100 μM [8] [×10⁻⁶ cm/s]",CC50 at 7 days [9] [nM],fold change of EC50 HIV-1GRL04810^RP18 vs HIV-1NL4-3 [1] [fold],fold change of EC50 HIV-1GRL05010^RP10 vs HIV-1NL4-3 [2] [fold],Selectivity Index [3],fold change of EC50 HIV-1LPV^R5μM vs HIV-1NL4-3 [4] [fold],fold change of EC50 HIV-1ATV^R5μM vs HIV-1NL4-3 [6] [fold],fold change of EC50 HIV-1SQV^R5μM vs HIV-1NL4-3 [7] [fold],"Papp at 30 min, 100 μM ([8]; Papp) [×10⁻⁶ cm/s]","EC50 [3, 12] [nM]",fold change of EC50 HIV-1APV^R5μM vs HIV-1NL4-3 [5] [fold],"CC50 at 7 days ([9]; 50% cytotoxicity, read-out: CC50) [nM]"
"CC(C)CN(C[C@@H](O)[C@H](Cc1ccccc1)NC(=O)O[C@H]1CO[C@H]2OCC[C@H]21)S(=O)(=O)c1ccc(N)cc1 [DRV, darunavir]",41,37,5 to 30,5 ± 1,32,510,50,40,9.9,,,,,,,,,,,
"COC(=O)N[C@H](C(=O)N[C@@H](Cc1ccccc1)[C@@H](O)CN(Cc1ccc(-c2ccccn2)cc1)NC(=O)[C@@H](NC(=O)OC)C(C)(C)C)C(C)(C)C [ATV, Atazanavir]",325,95,5 to 30,5 ± 1,33,660 ± 20,> 1000,> 1000,,28600 ± 900,81,24,"5,720",8,> 250,> 250,15.4,,,
COc1ccc(S(=O)(=O)N(CC(C)C)C[C@@H](O)[C@H](Cc2ccccc2)NC(=O)OC2CO[C@H]3OCC(F)(F)[C@@H]23)cc1 (some centres unmarked) [GRL-04810],33,29,,,30,430,20,130,,17500,66,58,"21,875",66,36,260,47.8,0.8,860,
CC(C)CN(C[C@@H](O)[C@H](Cc1ccccc1)NC(=O)O[C@H]1CO[C@H]2OCC(F)(F)[C@H]21)S(=O)(=O)c1ccc(N)cc1 [GRL-05010],39,36,,,30,560,40,46,,,13,10,"12,333",8,12,13,61.8,3,187,
"CC(C)(C)NC(=O)[C@@H]1C[C@@H]2CCCC[C@@H]2CN1C[C@@H](O)[C@H](Cc1ccccc1)NC(=O)[C@H](CC(N)=O)NC(=O)c1ccc2ccccc2n1 [SQV, Saquinavir]",32,36,,,25,90,460,> 1000,,,1,1,843,1,12,> 25,4.9,,2,17700 ± 3400

# From patent US9346820B2, “HIV-1 protease inhibitors having gem-di-fluoro bicyclic P2-ligands” (priority 2013, dated 2016)
